This is an account of results in publication PMC5469750, “Antibacterial and detoxifying activity of NZ17074 analogues with multi-layers of selective antimicrobial actions against Escherichia coli and Salmonella enteritidis” (Scientific Reports, 2017).

The test system of data set [1] is E. coli CVCC1515. The class given is cell-based, Escherichia coli. As for the experimental part: (§1) The antimicrobial activity of peptides was determined by the microbroth dilution method. The bacterial strains were incubated in Mueller-Hinton (MH) medium at 37 °C overnight until the mid-log phase (OD600 nm reading of 0.5). Bacteria were diluted to 1 × 10^5 CFU/ml and added into 96-well plates, followed by the addition of serial dilutions of peptides (from 0.0625 to 128 μg/ml). The plates were incubated at 37 °C for 18–24 h. The MIC value was determined as the lowest peptide concentration at which no bacterial growth was observed. All tests were conducted in triplicate.

Data set [2] has as its system E. coli CICC21530 (serotype O157:H7). The class given is cell-based, Escherichia coli. The conditions noted are these: microbroth dilution, MH medium, 1 × 10^5 CFU/ml, 37 °C, 18–24 h; representative of three independent experiments. As for the experimental part: as §1
On the technique in general: Dilution methods test growth across graded concentrations, often in twofold steps.

The subject of the next data set is P. aeruginosa CICC21630. The class given is cell-based, Pseudomonas aeruginosa. The method, then: as §1
The next data set deals with S. enteritidis CVCC3377. Format: cell-based, Salmonella enteritidis. As for the experimental part: as §1
A further data set deals with S. aureus ATCC25923. Format: cell-based, Staphylococcus aureus. The method, then:
as §1

In the next data set the test system is S. pullorum CVCC1802. The class given is cell-based. As for the experimental part: as §1
Another data set deals with Escherichia coli CVCC195. Format: cell-based. As for the experimental part:
as §1

Data set [3] deals with Enterococcus faecium CMCC1.2136. Format: cell-based. As for the experimental part: as §1
The test system of a further data set is S. pullorum CVCC1789. Format: cell-based. As for the experimental part: as §1
Data set [4] concerns Bacillus subtilis ATCC6633. The class given is cell-based. As for the experimental part:
as §1

Data set [5] concerns Staphylococcus aureus ATCC43300. The class given is cell-based. As for the experimental part: as §1
Another data set relates to S. suis CVCC606. The class given is cell-based. As for the experimental part: as §1
The next data set deals with S. choleraesuis CVCC503. Format: cell-based. The method, then: as §1
Data set [6] concerns Pseudomonas aeruginosa CICC10419. Format: cell-based. The method, then: as §1
The test system of data set [7] is Salmonella typhimurium ATCC14028. The class given is cell-based. The method, then: as §1
Data set [8] relates to Candida albicans CGMCC2.2411. The class given is cell-based.
A short description of data set [9]: LPS binding, BODIPY-TR-cadaverine (BC) displacement. Particulars: 100 μM; 40 μg/ml LPS and 10 μM BC in 50 mM Tris buffer pH 7.4, 1 h, room temperature. As for the experimental part:
Equal volumes of 40 μg/ml LPS and 10 μM BC in 50 mM Tris buffer (pH 7.4) were mixed, added into 96-well plates and incubated in the dark for 4 h at room temperature. […] Fluorescence was then measured using a microplate reader (excitation/emission, 580/620 nm). The occupancy rate was calculated by the following equation: BC displacement rate (%) = (1 − (F0 − F)/(F0 − Fmax)) × 100, wherein F0 is the fluorescence intensity of the solution of BC alone; Fmax is the fluorescence intensity in the presence of LPS at the saturation concentration, and F is the intensity of LPS:BC mixtures at varying displacer concentrations.

A further data set relates to murine erythrocytes. Set-up: method as in PMID 24816779. Particulars: 128 μg/ml; parent peptide; cited from earlier work.
The nature of data set [10]: Calcein leakage from model eukaryotic membranes. Particulars: POPC/cholesterol = 1:1 LUVs (500 μM lipid), 64 to 256 μg/ml, 5 min; 100% = 1% Triton X-100; n = 3. The class given is biochemical. As for the experimental part: Different lipids (Avanti Polar Linpids, Inc.) were used to prepare model membranes composed of POPC/ POPG (4:1 molar ratio) and POPC/cholesterol (1:1) by the extrusion method as previously described. POPC/POPG and POPC/cholesterol LUVs were used to mimic gram-negative bacterial and eukaryotic membranes, respectively. […] After incubation for 5 min, the fluorescence (F) (λexcitation = 492 nm, λemission = 518 nm) was measured on a microplate reader.

The subject of data set [11] is Listeria ivanovii ATCC19119. The class given is cell-based. The method, then: as §1
Another data set concerns E. coli 0111:B4 LPS. The experiment in a line: LPS-induced endotoxemia model, survival. The class given is in vivo, C57BL/6 mice. The conditions noted are these: 7 days, six mice per group. As for the experimental part:
Eight-week-old SPF male C57BL/6 mice (20 g ± 5 g, six mice per group) were injected intraperitoneally with E. coli 0111:B4 LPS (30 mg/kg body weight, Sigma). […] Mice injected with PBS were used as the negative control. The mouse survival rate was recorded for 7 days.

In a further data set the test system is IL-1β. The experiment in a line: LPS-induced cytokine release, serum ELISA. Particulars: 15 mg/kg intraperitoneal 0.5 h after 10 mg/kg LPS; LPS control 292.9; mean, n = 3 per group. Format: in vivo, C57BL/6 mice. As for the experimental part:
(§2) Blood was collected in a heparin sodium tube at 2 h or 8 h after LPS injection and incubated for 30 min at 37 °C and then overnight at 4 °C. After centrifugation at 3,000 rpm for 10 min at 4 °C, serum was collected from supernatant. The cytokine levels of TNF-α, IL-6 and IL-1β were detected by the Jiaxuan Biotech. Co. Ltd. (Beijing, China) using an enzyme linked immunosorbent assay (ELISA).
(In general: In an ELISA, binding on a coated surface is turned into a signal by an enzyme label.)

The subject of a further data set is TNF-α. Description: LPS-induced cytokine release, serum ELISA. The conditions noted are these: 15 mg/kg intraperitoneal 0.5 h after 10 mg/kg LPS; LPS control 394.9; mean, n = 3 per group. The class given is in vivo, C57BL/6 mice. As for the experimental part: as §2
A further data set concerns IL-6. Description: LPS-induced cytokine release, serum ELISA. The class given is in vivo, C57BL/6 mice. Particulars: 15 mg/kg intraperitoneal 0.5 h after 10 mg/kg LPS; LPS control 1026.8; mean, n = 3 per group. The method, then: as §2
The subject of a further data set is S. enteritidis CICC22956. The experiment in a line: S. enteritidis-induced peritonitis model, survival. The conditions noted are these: 7 days, six mice per group. Format: in vivo, ICR mice. The method, then:
(§3) Mice injected with only bacteria or saline served as negative (untreated) or blank (unchallenged) controls, respectively. Survival of mice was recorded every 12 h and followed for 7 days.

Data set [12] concerns E. coli CVCC1515. Description: E. coli-induced peritonitis model, survival. Format: in vivo, ICR mice. The conditions noted are these: 7 days, six mice per group. The method, then: as §3
[13] abbreviates: microbroth dilution, MH medium, 1 × 10^5 CFU/ml, 37 °C, 18–24 h, representative of three independent experiments.

Like-named read-outs stand apart in the source and are kept apart here. Bridges are numbered along the chain shown (N, C = ends). Where no end group is shown, it is not given here. A value given as a limit tells only on which side of the number the result lay.

Broadly, the MIC is the lowest concentration that inhibits growth of the organism. A lower MIC goes with greater potency. For the substance GFAWNVAVYRNGVRVAHRRAN [N8], the MIC with E. coli CVCC1515 [1] (CVCC1515) is 16 µg/mL; in data set [2], 16 µg/mL; in the data set with P. aeruginosa CICC21630 (CICC21630) it was over 128 µg/mL; in the data set with S. enteritidis CVCC3377 (CVCC3377), 1 µg/mL; with S. aureus ATCC25923 (ATCC25923), 2 µg/mL; in the data set with S. pullorum CVCC1802 (CVCC1802), 32 µg/mL. For the same substance, the MIC in the data set with Escherichia coli CVCC195 (CVCC195) was 32 µg/mL; in [3] (CMCC1.2136), 16 µg/mL; in the data set with S. pullorum CVCC1789 (CVCC1789), over 128 µg/mL; in data set [4] (ATCC6633) it was 4 µg/mL; in data set [5] (ATCC43300), over 64 µg/mL; against S. suis CVCC606 it was over 128 µg/mL. Also, the MIC was over 64 µg/mL against S. choleraesuis CVCC503 (CVCC503), over 128 µg/mL in [6] (CICC10419) and over 64 µg/mL in data set [7] (ATCC14028).

With “GFCWNVCVYRNGVRVCHRRCN (bicyclic or more) (disulfide 7-16, 3-20) [N1, parent marine peptide, variant of arenicin-3 (Tyr5 → Asn, Tyr17 → His) from the lugworm Arenicola marina, reference compound]”, the MIC in data set [8] (setting [13]) was 16 µg/mL; against E. coli CVCC1515 [1] (setting [13]), 0.25 µg/mL; in data set [2], 0.5 µg/mL; in the data set with P. aeruginosa CICC21630 (setting [13]), 4 µg/mL; in the data set on S. enteritidis CVCC3377 (setting [13]) it was 0.25 µg/mL; against S. aureus ATCC25923 (setting [13]) it was 0.5 to 1 µg/mL. The MIC in the data set on S. pullorum CVCC1802 (setting [13]) was 0.25 µg/mL; in the data set on Escherichia coli CVCC195 (setting [13]) it was 0.5 to 1 µg/mL; in data set [3] (setting [13]), over 16 µg/mL; in the data set on S. pullorum CVCC1789 (setting [13]), 0.25 µg/mL; in data set [4] (setting [13]), 0.25 µg/mL; in data set [5] (setting [13]), 16 µg/mL. For the same substance, the minimum inhibitory concentration (MIC) with S. suis CVCC606 (setting [13]) was determined as 16 µg/mL; against S. choleraesuis CVCC503 (setting [13]), 0.5 µg/mL; in data set [6] (setting [13]), 2 µg/mL; in data set [11] (setting [13]), 128 µg/mL; in [7] (setting [13]) it was 0.5 µg/mL. This substance also gave a BC displacement percentage in [9] of 79.8%. Besides, in the data set on murine erythrocytes, the hemolysis is 3%. In data set [10], the calcein dye leakage is 2.5–25.3%.

For GFWNVVYRNGVRVHRRN [N5], the MIC is over 128 µg/mL in [8] (CGMCC2.2411); 128 µg/mL with E. coli CVCC1515 [1] (CVCC1515); 64 µg/mL in data set [2]; over 128 µg/mL against P. aeruginosa CICC21630 (CICC21630); 4 µg/mL with S. enteritidis CVCC3377 (CVCC3377); 2 µg/mL against S. aureus ATCC25923 (ATCC25923). Further, the MIC in the data set on S. pullorum CVCC1802 (CVCC1802) is over 128 µg/mL; against Escherichia coli CVCC195 (CVCC195), 64 µg/mL; in [3] (CMCC1.2136) it was 64 µg/mL; in the data set with S. pullorum CVCC1789 (CVCC1789), over 128 µg/mL; in [4] (ATCC6633), 64 µg/mL; in data set [5] (ATCC43300) it was over 128 µg/mL. Moreover, the minimum inhibitory concentration (MIC) in the data set on S. suis CVCC606 is over 128 µg/mL; with S. choleraesuis CVCC503 (CVCC503), over 128 µg/mL; in data set [6] (CICC10419), over 128 µg/mL; in data set [11] (ATCC19119) it was 128 µg/mL; in data set [7] (ATCC14028) it was 128 µg/mL.

Consider polymyxin B [PMB], for which, in [9], the BC displacement percentage is 89.3%. Also, the survival rate is 16.7% in the data set on E. coli 0111:B4 LPS (10 mg/kg intraperitoneal at 0.5 h and 8 h after LPS (30 mg/kg)); 100% in the data set on E. coli 0111:B4 LPS (15 mg/kg intraperitoneal at 0.5 h and 8 h after LPS (30 mg/kg)); 83.3% in the data set with S. enteritidis CICC22956 (0.31 mg/kg intraperitoneal at 0.5 h and 8 h after challenge); 100% in the data set with S. enteritidis CICC22956 (0.625 mg/kg intraperitoneal at 0.5 h and 8 h after challenge); 66.7% in the data set with E. coli CVCC1515 [12] (0.31 mg/kg intraperitoneal at 0.5 and 8 h after inoculation); 100% in the data set with E. coli CVCC1515 [12] (0.625 mg/kg intraperitoneal at 0.5 and 8 h after inoculation). In the data set on IL-1β, the “serum level of IL-1β” value was 242.8 pg/mL. In the data set with TNF-α, the “serum level of TNF-α” value is 74.0 pg/mL. Further, in the data set with IL-6, the “serum level of IL-6” value amounted to 514.9 pg/mL. Further, in data set [10], the calcein dye leakage was 12.3–51.0%.
